# Reference: US20230172915A1, “DHODH INHIBITOR FOR THE TREATMENT OF COVID-19” (priority 2020, published 2023)
# pEC50: −log10 of the molar value. Read-outs that look alike come from different tables or passages of the source.
# Assays:
# [1] = test system: DHODH; assay: Study PTC299-ONC-007-NF2: serum DHO and VEGF in neurofibromatosis type 2 patients; details: 100 mg BID
# [2] = Relative bioavailability tablet versus capsule; details: in vivo, oral; administered with food; read-out: relative bioavailability of tablet formulation compared with the capsule
# Experimental: The rationale for this dosing is based on the following: • The dosing regimen utilizes results from PTC’s extensive clinical, safety, and clinical pharmacology experience with the capsule formulation of PTC299 that was used in prior solid tumor clinical studies. • The tablet formulation has approximately 40% relative bioavailability compared with the capsule when administered with food. • The 200 mg BID dosing for 7 days have been tested previously in healthy volunteers in study PTC299-ONC-002-HV with no serious adverse events. […] The dosing of 200 mg BID for the first 7 days will raise the exposure of the drug quickly to accommodate the need for rapid onset of PTC299 activity..
# [3] = Study PTC299-ONC-007-NF2: PTC299 plasma level; details: human, oral, 100 mg BID
# [4] = test system: Ebola virus; assay: microbe, parasite or virus in culture; assay type: cell-based; details: Zaire ebolavirus, Vero, read-out: EC50 Ebola virus
# [5] = Single- and repeat-dose toxicology studies in rats
# [6] = test system: SARS-CoV-2; assay: SARS-CoV-2 infected Vero cells, N-protein antibody and DAPI staining; details: 30 nM, 300 nM
# [7] = test system: primary acute myeloid leukemia (AML) blast cells; assay: Primary AML blast cell assay with and without uridine; assay type: cell-based; details: uridine 0, 3, 10, 30, or 100 µM
# Experimental: FIG. 5 is a plot showing the fraction of total blasts relative to DMSO control vs PTC299 concentration in nM, from an assay of the ability of PTC299 to suppress DHODH activity in the presence of increasing concentrations of uridine (0, 3, 10, 30, or 100 µM) .
# The ability of PTC299 to inhibit DHODH was further tested using primary acute myeloid leukemia (AML) blast cells that are reliant upon the de novo pyrimidine nucleotide pathway to obtain pyrimidine nucleotides.
# [8] = test system: West Nile virus; assay: Antiviral activity, West Nile virus (Vero cells); assay type: cell-based
# [9] = In vivo rat micronucleus assay
# [10] = test system: SARS-CoV-2; assay: SARS-CoV-2 titer in Vero cells, TCID50 assay; assay type: cell-based
# [11] = Bacterial mutagenicity (Ames) test
# [12] = test system: Poliovirus; assay: microbe, parasite or virus in culture; assay type: cell-based; details: Enterovirus C, HeLa, read-out: EC50 Poliovirus
# [13] = test system: Chinese hamster ovary cells
# [14] = test system: PBMCs plus fibroblasts (HDFSAg); assay: BioMAP profiling, HDFSAg system; assay type: cell-based; details: Homo sapiens
# Experimental: The effect of PTC299 on cytokine production was assessed using BioMAP profiling (BioSeek, now part of Eurofins). The BioMAP system is comprised of complex co-cultures of primary peripheral blood mononuclear cells (PBMCs) with other cell types including B cells, fibroblasts, and endothelial cells allowing for the measurement of physiologically relevant biomarker readouts of the activity of a compound. Using this system, cytokine production was evaluated in the following models of primary cell disease models: • Peripheral blood mononuclear cells (PBMCs) plus venular endothelial cells (sAg) • PBMCs plus B cells (BT) • PBMCs plus fibroblasts (HDFSAg) • TH2 cells plus venular endothelial cells (/TH2).
# Abbreviations in Table 4: BCR, B-cell receptor; BT System, co-culture of CD19+ B cells and PBMC that utilizes BCR stimulation and sub-mitogenic TCR stimulation; HDFSAg system, co-culture of human primary dermal fibroblasts and PBMC that is stimulated with sub-mitogenic TCR levels; IL, interleukin; PBMC, Peripheral Blood Mononuclear Cell; SAg system, co-culture of endothelial cells and PBMC stimulated with mitogenic levels of TCR ligands; TCR, T-cell receptor; /TH2 system, co-culture of endothelial cells and Th2 blasts stimulated with TCR ligands and cytokines; Th2, T helper type 2; VEGF, vascular endothelial growth factor.
# [15] = test system: SARS-CoV-2 USA-WA1/2020; assay: PTC299 and remdesivir alone or combined, SARS-CoV-2 titer in Vero cells (TCID50); assay type: cell-based; details: 24 hours post infection
# [16] = Single- and repeat-dose toxicology studies in dogs
# [17] = test system: Hepatitis C virus (replicon); assay: Antiviral activity, Hepatitis C virus replicon (Huh7 cells); assay type: cell-based; details: Huh-7
# [18] = Severe acute respiratory syndrome coronavirus 2, Vero cells, extended dose response 0.003-1000 nM
structure (smiles),measurement,setting,value
"COc1ccc([C@H]2c3[nH]c4ccc(Cl)cc4c3CCN2C(=O)Oc2ccc(Cl)cc2)cc1 [PTC299, 4-chlorophenyl (S)-6-chloro-1-(4-methoxyphenyl)-1,3,4,9-tetrahydro-2H-pyrido[3,4-b]indole-2-carboxylate]",serum VEGF levels,[1]; 8 weeks versus pre-dose,significantly reduced after 8 weeks of treatment
same,serum DHO levels,[1]; post-dose versus pre-dose,elevated at 8 or 16 weeks
same,bioavailability,[2],~40%
same,concentration at 4 h,[3],1900 ng/mL
same,pEC50,[4],8.05
same,"alanine aminotransferase, aspartate aminotransferase, and total bilirubin",[5]; rats dosed through 28 days,no increases
same,histopathologic findings in the liver,[5]; rats dosed through 28 days,no histopathologic findings in the liver
same,PTC299-related mortality,"[5]; rats, toxicology studies",No PTC299-related mortality was observed
same,viability of the cells (DAPI stain),[6]; 3 µM,not cytotoxic
same,viral levels by N-protein antibody staining,[6]; 3 µM versus untreated controls,Increasing the PTC299 concentration led to greater reductions
same,effect of exogenous uridine on PTC299-dependent cytotoxicity,[7],reversal of the effects of PTC299-dependent cytotoxicity by the addition of exogenous uridine
same,pEC50,[8],8.00
same,in vivo rat micronucleus assay,[9],negative
same,drop in titer versus untreated cells,"[10]; Example 11, 1, 0.5, or 0.25 µM, 24 hours post infection",three log drop in titer
same,pEC50,[10]; [18],8.59
same,EC90,[10]; [18],53 nM
same,viral replication,[10]; cells preincubated for 18 hours,inhibited viral replication
same,effect of excess uridine on inhibition of SARS-CoV-2 replication,[10]; excess uridine (100 uM),overcame inhibition of SARS-CoV-2 replication
same,reduction of viral replication,"[10]; pre-incubation 2 hours with 250, 500, and 1000 nM, after 24 hours, all dose levels",about 3 orders of magnitude
same,bacterial mutagenicity (Ames) test,[11],negative
same,pEC50,[12],9.22
same,chromosomal aberration assay,[13],negative
same,inhibition at 0.001 µM,[14]; read-out: % Inhibition sVEGF,90%
same,inhibition at 0.01 µM,[14]; read-out: % Inhibition sVEGF,84%
same,inhibition at 0.1 µM,[14]; read-out: % Inhibition sVEGF,60%
same,inhibition at 0.001 µM,"[14]; HDFSAg, 1 nM, read-out: % Inhibition sIL-6",33%
same,inhibition at 0.001 µM,"[14]; HDFSAg, 1 nM, read-out: % Inhibition sIL-17F",46%
same,inhibition at 0.01 µM,"[14]; HDFSAg, 10 nM, read-out: % Inhibition IL-8",25%
same,inhibition at 0.01 µM,"[14]; HDFSAg, 10 nM, read-out: % Inhibition sIL-2",47%
same,inhibition at 0.01 µM,"[14]; HDFSAg, 10 nM, read-out: % Inhibition sIL-6",91%
same,inhibition at 0.01 µM,"[14]; HDFSAg, 10 nM, read-out: % Inhibition sIL-10",73%
same,inhibition at 0.01 µM,"[14]; HDFSAg, 10 nM, read-out: % Inhibition sIL-17A",57%
same,inhibition at 0.01 µM,"[14]; HDFSAg, 10 nM, read-out: % Inhibition sIL-17F",86%
same,inhibition at 0.1 µM,"[14]; HDFSAg, 100 nM, read-out: % Inhibition IL-8",44%
same,inhibition at 0.1 µM,"[14]; HDFSAg, 100 nM, read-out: % Inhibition MCP-1",33%
same,inhibition at 0.1 µM,"[14]; HDFSAg, 100 nM, read-out: % Inhibition MMP-1",23%
same,inhibition at 0.1 µM,"[14]; HDFSAg, 100 nM, read-out: % Inhibition sIL-2",68%
same,inhibition at 0.1 µM,"[14]; HDFSAg, 100 nM, read-out: % Inhibition sIL-6",96%
same,inhibition at 0.1 µM,"[14]; HDFSAg, 100 nM, read-out: % Inhibition sIL-10",81%
same,inhibition at 0.1 µM,"[14]; HDFSAg, 100 nM, read-out: % Inhibition sIL-17A",74%
same,inhibition at 0.1 µM,"[14]; HDFSAg, 100 nM, read-out: % Inhibition sIL-17F",83%
same,inhibition at 0.1 µM,"[14]; HDFSAg, 100 nM, read-out: % Inhibition sTNFa",35%
same,reduction in SARS-CoV-2 titer,[15]; PTC299 250 nM,96%
same,reduction in SARS-CoV-2 titer,[15]; PTC299 500 nM,98%
same,"alanine aminotransferase, aspartate aminotransferase, and total bilirubin",[16]; dogs dosed through 28 days,no increases
same,histopathologic findings in the liver,[16]; dogs dosed through 28 days,no histopathologic findings in the liver
same,PTC299-related mortality,"[16]; dogs, toxicology studies",No PTC299-related mortality was observed
same,pEC50,[17],7.44
